Test results as given in US9388199B2, “Pyrrolidine derivatives and their use as complement pathway modulators” (priority 2012, dated 2016).
Counter-ions that a name gives are not always drawn.

Biological target: Recombinant human factor D (Homo sapiens (Human), UniProt P00746)
Assay: Human Complement Factor D Assay: Method 1
Type: biochemical
Conditions: 10 nM factor D, substrate Z-Lys-thiobenzyl, fluorescence readout, read-out: IC50 (μM), Factor D inhibition
Protocol: Human Complement Factor D Assay: Method 1
Recombinant human factor D (expressed in E. coli and purified using standard methods) at 10 nM concentration is incubated with test compound at various concentrations for 1 hour at room temperature in 0.1 M Hepes buffer, pH 7.5, containing 1 mM MgCl2, 1 M NaCl and 0.05% CHAPS. A synthetic substrate Z-Lys-thiobenzyl and 2,4-dinitrobenzenesulfonyl-fluoresceine are added to final concentrations of 200 μM and 25 μM, respectively. The increase in fluorescence is recorded at excitation of 485 nm and emission at 535 nm in a microplate spectrofluorimeter. IC50 values are calculated from percentage of inhibition of complement factor D-activity as a function of test compound concentration.

Sequence of Recombinant human factor D (P00746 26-253): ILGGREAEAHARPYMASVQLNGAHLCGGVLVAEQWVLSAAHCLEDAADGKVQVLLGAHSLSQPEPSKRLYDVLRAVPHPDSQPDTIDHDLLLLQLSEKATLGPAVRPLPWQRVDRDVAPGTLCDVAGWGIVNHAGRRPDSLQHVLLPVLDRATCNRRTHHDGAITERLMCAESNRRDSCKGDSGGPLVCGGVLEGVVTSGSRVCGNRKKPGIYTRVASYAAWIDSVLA

| SMILES | IC50 [µM] |
| --- | --- |
| CC(C)(C)CCNC(=O)[C@@H]1C[C@H]2C[C@H]2N1C(=O)Nc1cn(C(N)=O)c2ccccc12 [Example 21, (1R,3S,5R)-2-Aza-bicyclo[3.1.0]hexane-2,3-dicarboxylic acid 2-[(1-carbamoyl-1H-indol-3-yl)-amide]3-[(3,3-dimethyl-butyl)-amide]] | 0.058 |
| CC(=O)c1nn(CC(=O)N2[C@@H]3C[C@@H]3C[C@H]2C(=O)NCCC(F)(F)F)c2cnccc12 [Example 39, (1R,3S,5R)-2-[2-(3-Acetyl-pyrazolo[3,4-c]pyridin-1-yl)-acetyl]-2-aza-bicyclo [3.1.0]hexane-3-carboxylic acid (3,3,3-trifluoro-propyl)-amide] | 5.32 |
| C[Si](C)(C)CCNC(=O)[C@@H]1C[C@H]2C[C@H]2N1C(=O)Nc1cn(C(N)=O)c2ccccc12 [Example 22, (1R,3S,5R)-2-Aza-bicyclo [3.1.0]hexane-2,3-dicarboxylic acid 2-[(1-carbamoyl-1H-indol-3-yl)-amide] 3-[(2-trimethylsilanyl-ethyl)-amide]] | 0.057 |
| CC(C)(C)C[C@@H](CO)NC(=O)[C@@H]1C[C@H]2C[C@H]2N1C(=O)Cn1nc(C(N)=O)c2ccccc21 [Example 35, 1-{2-[(1R,3S,5R)-3-((S)-1-Hydroxymethyl-3,3-dimethyl-butylcarbamoyl)-2-aza-bicyclo[3.1.0]hex-2-yl]-2-oxo-ethyl}-1H-indazole-3-carboxylic acid amide] | 0.593 |
| CC(C)(O)CCNC(=O)[C@@H]1C[C@H]2C[C@H]2N1C(=O)Cn1nc(C(N)=O)c2ccncc21 [Example 10, 1-{2-[(1R,3S,5R)-3-(3-Hydroxy-3-methyl-butylcarbamoyl)-2-aza-bicyclo[3.1.0]hex-2-yl]-2-oxo-ethyl}-1H-pyrazolo[3,4-c] pyridine-3-carboxylic acid amide trifluoroacetate] | 5.67 |
| CC(C)(C)CCNC(=O)[C@@H]1C[C@H]2C[C@H]2N1C(=O)Cn1nc(C(N)=O)c2ccccc21 [Example 1, 1-{2-[(1R,3S,5R)-3-(3,3-Dimethyl-butylcarbamoyl)-2-aza-bicyclo[3.1.0]hex-2-yl]-2-oxo-ethyl}-1H-indazole-3-carboxylic acid amide] | 0.061 |
| CC(=O)c1nn(CC(=O)N2[C@@H]3C[C@@H]3C[C@H]2C(=O)NCCC(C)(C)C)c2cnccc12 [Example 7, (1R,3S,5R)-2-[2-(3-Acetyl-pyrazolo[3,4-c]pyridin-1-yl)-acetyl]-2-aza-bicyclo[3.1.0] hexane-3-carboxylic acid (3,3-dimethyl-butyl)-amide] | 0.068 |
| CC(C)(C)C(=O)CNC(=O)[C@@H]1C[C@H]2C[C@H]2N1C(=O)Cn1nc(C(N)=O)c2ccccc21 [Example 34, 1-{2-[(1R,3S,5R)-3-(3,3-Dimethyl-2-oxo-butylcarbamoyl)-2-aza-bicyclo[3.1.0]hex-2-yl]-2-oxo-ethyl}-1H-indazole-3-carboxylic acid amide] | 0.192 |
| CC(=O)c1nn(CC(=O)N2[C@@H]3C[C@@H]3C[C@H]2C(=O)NCCCOC(F)(F)F)c2ccc(OCc3ncccn3)cc12 [Example 14, (1R,3S,5R)-2-{2-[3-Acetyl-5-(pyrimidin-2-ylmethoxy)-indazol-1-yl]-acetyl}-2-aza-bicyclo[3.1.0]hexane-3-carboxylic acid (3-trifluoro methoxy-propyl)-amide] | 0.127 |
| CC(C)(C)C(F)CNC(=O)[C@@H]1C[C@H]2C[C@H]2N1C(=O)Cn1nc(C(N)=O)c2ccccc21 (stereo partly drawn) [Example 44, 1-{2-[(1R,3S,5R)-3-(2-Fluoro-3,3-dimethyl-butylcarbamoyl)-2-aza-bicyclo[3.1.0]hex-2-yl]-2-oxo-ethyl}-1H-indazole-3-carboxylic acid amide] | 0.384 |
| CCNC(=O)[C@@H]1C[C@H]2C[C@H]2N1C(=O)Nc1cn(C(N)=O)c2ccccc12 [Example 24, (1R,3S,5R)-2-Aza-bicyclo [3.1.0]hexane-2,3-dicarboxylic acid 2-[(1-carbamoyl-1H-indol-3-yl)-amide] 3-ethylamide] | 1.75 |
| CC[C@@H](C)NC(=O)[C@@H]1C[C@H]2C[C@H]2N1C(=O)Cn1nc(C(C)=O)c2cc(OCc3ncccn3)ccc21 [Example 17, (1R,3S,5R)-2-{2-[3-Acetyl-5-(pyrimidin-2-ylmethoxy)-indazol-1-yl]-acetyl}-2-aza-bicyclo[3.1.0]hexane-3-carboxylic acid ((R)-sec-butyl)-amide] | 0.333 |
| CCNC(=O)[C@@H]1C[C@H]2C[C@H]2N1C(=O)Cn1nc(C(N)=O)c2ccncc21 [Example 12, 1-[2-((1R,3S,5R)-3-Ethylcarbamoyl-2-aza-bicyclo [3.1.0]hex-2-yl)-2-oxo-ethyl]-1H-pyrazolo[3,4-c]pyridine-3-carboxylic acid amide] | 7.22 |
| NC(=O)n1cc(NC(=O)N2[C@@H]3C[C@@H]3C[C@H]2C(=O)NCCOC(F)(F)F)c2ccccc21 [Example 23, (1R,3S,5R)-2-Aza-bicyclo [3.1.0]hexane-2,3-dicarboxylic acid 2-[(1-carbamoyl-1H-indol-3-yl)-amide] 3-[(2-trifluoromethoxy-ethyl)-amide]] | 0.427 |
| C[Si](C)(C)CCNC(=O)[C@@H]1C[C@H]2C[C@H]2N1C(=O)Cn1nc(C(N)=O)c2ccccc21 [Example 28, 1-{2-oxo-2-[(1R,3S,5R)-3-(2-trimethylsilanyl-ethylcarbamoyl)-2-aza-bicyclo[3.1.0]hex-2-yl]-ethyl}-1H-indazole-3-carboxylic acid amide] | 0.065 |
| CC(C)(C)C(O)CNC(=O)[C@@H]1C[C@H]2C[C@H]2N1C(=O)Cn1nc(C(N)=O)c2ccccc21 (stereo partly drawn) [Example 33, 1-{2-[(1R,3S,5R)-3-(2-Hydroxy-3,3-dimethyl-butylcarbamoyl)-2-aza-bicyclo [3.1.0]hex-2-yl]-2-oxo-ethyl}-1H-indazole-3-carboxylic acid amide] | 0.271 |
| NC(=O)c1nn(CC(=O)N2[C@@H]3C[C@@H]3C[C@H]2C(=O)NCCF)c2ccccc12 [Example 41, 1-{2-[(1R,3S,5R)-3-(2-Fluoro-ethylcarbamoyl)-2-aza-bicyclo[3.1.0]hex-2-yl]-2-oxo-ethyl}-1H-indazole-3-carboxylic acid amide] | 1.35 |
| CC(=O)c1nn(CC(=O)N2[C@@H]3C[C@@H]3C[C@H]2C(=O)NCCOC(F)(F)F)c2ccc(OCc3ncccn3)cc12 [Example 15, (1R,3S,5R)-2-{2-[3-Acetyl-5-(pyrimidin-2-ylmethoxy)-indazol-1-yl]-acetyl}-2-aza-bicyclo[3.1.0]hexane-3-carboxylic acid (2-trifluoro methoxy-ethyl)-amide] | 0.021 |
| C[Si](C)(C)CCNC(=O)[C@@H]1C[C@H]2C[C@H]2N1C(=O)Cn1nc(C(N)=O)c2ccncc21 [Example 9, 1-{2-Oxo-2-[(1R,3S,5R)-3-(2-trimethylsilanyl-ethylcarbamoyl)-2-aza-bicyclo[3.1.0]hex-2-yl)-ethyl}-1H-pyrazolo[3,4-c] pyridine-3-carboxylic acid amide] | 0.153 |
| CC(C)(C)CCNC(=O)[C@@H]1C[C@H]2C[C@H]2N1C(=O)Cn1nc(C(N)=O)c2ccncc21 [Example 6, 1-{2-[(1R,3S,5R)-3-(3,3-Dimethyl-butylcarbamoyl)-2-aza-bicyclo[3.1.0]hex-2-yl]-2-oxo-ethyl}-1H-pyrazolo[3,4-c] pyridine-3-carboxylic acid amide] | 0.168 |
| CO[C@H]1[C@@H](C(=O)NCCC(C)(C)C)N(C(=O)Cn2nc(C(N)=O)c3cc(C)ncc32)C[C@@H]1F [Example 4, 1-{2-[(2S,3S,4S)-2-(3,3-Dimethyl-butylcarbamoyl)-4-fluoro-3-methoxy-pyrrolidin-1-yl]-2-oxo-ethyl}-5-methyl-1H-pyrazolo[3,4-c]pyridine-3-carboxylic acid amide] | 0.161 |
| NC(=O)n1cc(NC(=O)N2[C@@H]3C[C@@H]3C[C@H]2C(=O)NCCOC(F)(F)C(F)(F)F)c2ccccc21 [Example 27, (1R,3S,5R)-2-Aza-bicyclo [3.1.0]hexane-2,3-di arboxylic acid 2-[(1-carbamoyl-1H-indol-3-yl)-amide] 3-[(2-pentafluoroethyloxy-ethyl)-amide]] | 1.97 |
